Data published in paper PMC9127750, “Structure-based design of CDC42 effector interaction inhibitors for the treatment of cancer” (Cell reports, 2022).

Test system: WM3248 melanoma cells, 486 antibodies
Test: Reverse phase protein arrays (RPPA);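 as to RPPA ACC1.R.C: ratio of treated to vehicle (0 µM) normalized linear protein signal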;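 as to RPPA AMPK.a2 pS345.R.V: ratio of treated to vehicle (0 µM) normalized linear protein signal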;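 as to RPPA AMPKa pT172.R.C: ratio of treated to vehicle (0 µM) normalized linear protein signal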;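 as to RPPA ASNS.R.V: ratio of treated to vehicle (0 µM) normalized linear protein signal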;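 as to RPPA Akt1.R.V: ratio of treated to vehicle (0 µM) normalized linear protein signal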;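 as to RPPA Atg5.R.C: ratio of treated to vehicle (0 µM) normalized linear protein signal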;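 as to RPPA Bim.R.V: ratio of treated to vehicle (0 µM) normalized linear protein signal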
Assay type: cell-based, Human
Conditions: 10 uM
From the text: Pellets were snap frozen in liquid nitrogen and shipped to MD Anderson Cancer Center core RPPA facility for RPPA analysis (Table S5). Three biological replicates for each sample were generated.
Nomenclatures on the RPPA heatmaps: name_of_antibody.species_of_antibody.status_of_antibody. V - antibody validated; C - validation of antibody in progress; Q - antibody nonspecific; E – under evaluation; antibodies raised in M - mouse, G - goat, R - rabbit, or T - rat.

## CN(C)c1cccc(Nc2cc(-c3ccccc3)nc(C3CCNCC3)n2)c1 [ARN22089, N1,N1-dimethyl-N3-(6-phenyl-2-(piperidin-4-yl)pyrimidin-4-yl)benzene-1,3-diamine]
Average
  RPPA level MTCO1.M.V: 0.952
  RPPA level Mcl.1.R.V: 0.908
  RPPA level MelanA.R.C: 0.925
  RPPA level Merlin.R.C: 0.993
  RPPA level Midkine.R.V: 1.001
  RPPA level Mitofusin.1.R.V: 0.993
  RPPA level Mitofusin.2.R.V: 0.945
  RPPA level Mnk1.R.V: 0.956
  RPPA level mTOR.R.V: 0.929
  RPPA level mTOR_pS2448.R.C: 0.962
  c.Jun_pS73.R.V RPPA level: 1.013
  c.Kit.R.V RPPA level: 1.031
  c.Met_pY1234_Y1235.R.V RPPA level: 0.982
  c.Myc.R.C RPPA level: 1.334
  cGAS.R.V RPPA level: 1.114
  cdc2_pY15.R.C RPPA level: 0.967
  cdc25C.R.V RPPA level: 0.900
C.1
  RPPA A.Raf.R.V: 0.924
  RPPA A.Raf_pS299.R.C: 1.052
  RPPA ACC1.R.C: 0.932
  RPPA ACC_pS79.R.V: 1.211
  RPPA ACLY_pS455.R.V: 1.216
  RPPA ACVRL1.R.C: 1.064
  RPPA ADAR1.M.V: 1.080
  RPPA ALKBH5.R.V: 1.056
  RPPA AMPK.a2_pS345.R.V: 0.962
  RPPA AMPKa.R.C: 0.981
  RPPA AMPKa_pT172.R.C: 2.354
  RPPA AR.R.V: 0.957
  RPPA ARID1A.R.C: 1.055
  RPPA ASNS.R.V: 0.968
  RPPA ATM.R.V: 0.876
  RPPA ATM_pS1981.R.V: 1.025
  RPPA ATP5A.M.C: 1.084
  RPPA ATP5H.R.V: 1.134
  RPPA ATRX.R.C: 0.823
  RPPA AceCS1.R.V: 1.056
  RPPA Akt1.R.V: 0.796
  RPPA Akt1_pS473.R.V: 0.792
  RPPA Akt2.R.V: 0.881
  RPPA Akt2_pS474.R.C: 0.939
  RPPA Akt.R.V: 0.872
  RPPA Akt_pS473.R.V: 0.917
  RPPA Akt_pT308.R.V: 0.810
  RPPA Ambra1_pS52.R.C: 1.060
  RPPA Annexin.I.M.V: 0.884
  RPPA Annexin.VII.M.V: 1.054
  RPPA Atg3.R.V: 0.850
  RPPA Atg4B.R.C: 0.734
  RPPA Atg5.R.C: 0.909
  RPPA Atg7.R.V: 0.713
  RPPA Aurora.A.R.C: 1.325
  RPPA Aurora.ABC_pT288_pT232_pT198.R.C: 1.697
  RPPA Axl.R.V: 0.673
  RPPA B7.H3.R.C: 0.862
  RPPA B7.H4.R.C: 0.874
  RPPA B.Raf.R.C: 0.709
  RPPA B.Raf_pS445.R.V: 0.874
  RPPA BCL2A1.R.V: 0.885
  RPPA BMK1.Erk5_pT218_Y220.R.V: 1.100
  RPPA BRCA1.M.C: 0.993
  RPPA Bad_pS112.R.V: 1.031
  RPPA Bak.R.C: 1.026
  RPPA Bax.R.V: 0.917
  RPPA Bcl2.R.C: 1.064
  RPPA Bcl.xL.R.V: 0.877
  RPPA BiP.GRP78.M.C: 0.971
  RPPA Bid.R.C: 0.858
  RPPA Bim.R.V: 0.886
  RPPA X4E.BP1.R.V: 1.220
  RPPA X4E.BP1_pS65.R.V: 0.985
  RPPA X4E.BP1_pT37_T46.R.V: 0.975
  RPPA X14.3.3.zeta.R.V: 1.026
  RPPA X53BP1.R.V: 0.922
  RPPA b.Actin.R.C: 0.996
  RPPA b.Catenin_pT41_S45.R.V: 0.984
  RPPA c.Abl.R.V: 1.031
  RPPA c.Abl_pY412.R.C: 0.928
  RPPA c.IAP2.R.C: 1.007
Average of 3
  RPPA PREX1.R.V Average: 0.915
  RPPA PTEN.R.V Average: 0.933
  RPPA PTPN12.R.V Average: 0.962
  RPPA PYGB.R.V Average: 1.021
  RPPA PYGM.M.C Average: 1.025
  RPPA Puma.R.C Average: 0.968
  RPPA Pyk2_pY402.R.C Average: 0.960
  RPPA RBM15.R.V Average: 0.873
  RPPA RIP3.R.C Average: 0.948
  RPPA RIP.R.C Average: 0.978
  RPPA RPA32_pS4_S8.R.C Average: 1.083
  RPPA RRM1.R.C Average: 0.916
  RPPA RRM2.R.C Average: 0.917
  RPPA RSK1.R.V Average: 0.967
  RPPA RSK.R.C Average: 0.909
  RPPA Rab11.R.C Average: 0.990
  RPPA Rab25.R.V Average: 0.979
  RPPA Rad17_pS645.R.V Average: 1.063
  RPPA Rad23A.R.C Average: 0.920
  RPPA Rad50.R.V Average: 0.991
  RPPA Rad51.R.C Average: 1.083
  RPPA Raptor.R.V Average: 0.939
  RPPA Rb.M.Q Average: 1.024
  RPPA Rb_pS807_S811.R.V Average: 0.952
  RPPA Rheb.M.C Average: 1.056
  RPPA Rictor.R.C Average: 0.955
  RPPA Rictor_pT1135.R.V Average: 1.027
  RPPA S6.M.V Average: 0.930
  RPPA S6_pS235_S236.R.V Average: 0.713
  RPPA S6_pS240_S244.R.V Average: 0.956
  RPPA SCD.M.V Average: 1.034
  RPPA SF2.R.V Average: 1.005
  RPPA SFRP1.R.V Average: 0.965
  RPPA SGK1.R.V Average: 1.012
  RPPA SGK3.R.V Average: 1.035
  RPPA SHP2.R.V Average: 1.004
  RPPA SHP.2_pY542.R.C Average: 0.896
  RPPA SIRPαR.V Average: 1.009
  RPPA SLC1A5.R.C Average: 0.975
  RPPA SOD1.M.V Average: 1.031
  RPPA SOD2.R.V Average: 1.115
  RPPA SOX7.R.V Average: 1.015
  RPPA STING.R.V Average: 0.904
  RPPA Shc_pY317.R.C Average: 1.847
  RPPA Slfn11.G.C Average: 0.945
  RPPA Smac.M.Q Average: 0.998
  RPPA Smad1.R.V Average: 1.021
  RPPA Smad3.R.V Average: 0.979
  RPPA Snail.M.Q Average: 0.977
  RPPA Sox2.R.V Average: 0.987
  RPPA Sox17.R.V Average: 1.018
  RPPA Src.M.V Average: 1.079
  RPPA Src_pY416.R.V Average: 0.992
  RPPA Src_pY527.R.V Average: 0.908
  RPPA Stat1_pY701.R.V Average: 1.035
  RPPA Stat3.R.C Average: 0.972
  RPPA Stat3_pY705.R.C Average: 1.002
  RPPA Stat5a.R.V Average: 0.958
  RPPA TAZ.R.V Average: 0.958
  RPPA TEAD.R.C Average: 0.967
  RPPA TFAM.R.V Average: 0.914
  RPPA TFRC.R.V Average: 0.926
  RPPA TIGAR.R.V Average: 0.978
  RPPA TRAP1.M.V Average: 1.032
  RPPA TRIM25.R.C Average: 0.869
  RPPA TRIP13.R.V Average: 1.026
  RPPA Transglutaminase.M.V Average: 1.215
Average of 3 replicates
  RPPA signal, antibody TSC1.R.C, Average: 0.905
  RPPA signal, antibody TTF1.R.V, Average: 0.943
  RPPA signal, antibody TUFM.R.V, Average: 1.288
  RPPA signal, antibody Tuberin.R.V, Average: 0.933
  RPPA signal, antibody Tuberin_pT1462.R.V, Average: 1.050
  RPPA signal, antibody Twist.M.C, Average: 1.060
  RPPA signal, antibody Tyro3.R.V, Average: 1.231
  RPPA signal, antibody U.Histone.H2B.R.C, Average: 0.832
  RPPA signal, antibody UBAC1.R.V, Average: 0.948
  RPPA signal, antibody UBQLN4.M.C, Average: 0.975
  RPPA signal, antibody UGT1A.M.V, Average: 1.078
  RPPA signal, antibody ULK1_pS757.R.C, Average: 0.965
  RPPA signal, antibody UQCRC2.M.C, Average: 0.921
  RPPA signal, antibody UVRAG.R.C, Average: 0.967
  RPPA signal, antibody VASP.R.V, Average: 0.887
  RPPA signal, antibody VAV1.R.C, Average: 0.939
  RPPA signal, antibody VEGFR.2.R.V, Average: 0.919
